From patent publication US11173137B2, “Compositions and methods to modulate chloride ion channel activity” (The Board of Trustees of the Leland Stanford Junior …, priority 2018, dated 2021)
“And” between values parts separate entries of the source, which are not always exact repeats. Identical values can stand only once. Like-named read-outs stand apart in the source and are kept apart here.

Legend:
CLC-2 [1] = target: T1, CLC-2 (Homo sapiens (Human), UniProt P51788); experiment: IonWorks Barracuda automated patch-clamp electrophysiology, human CLC-2 cell line; format: cell-based; settings: for % inhibition at the concentration listed (in parenthesis): CLC-2, at the concentration listed in the IC50 cell, negative = increase in peak current
From the text: FIG. 8, panels A and B depict graphically the Selectivity between CLC-1 and CLC-2. […]

CLC-1 = CLC-1 (Homo sapiens (Human), UniProt P35523); experiment: IonWorks Barracuda automated patch-clamp electrophysiology, CLC-1; format: cell-based; settings: for IC50: Table 2
Description: If the IC50 was greater than the highest concentration tested, this concentration is listed along with the percent inhibition at this concentration (in parenthesis).
FIG. 8, panels A and B depict graphically the Selectivity between CLC-1 and CLC-2. […] Data points represent the mean current block at 16 different FA44 concentrations (n=4-8), using the IonWorks™ Barracuda. […] Panel B depicts a summary graph showing the mean inhibition of CLC-1 (left bar) or CLC-2 (right bar) current at 30 μM, illustrating the improvement in both selectivity and potency from the hit compound MCFA to the exemplary compound FA44.

CLC-2 [2] = target: T1, CLC-2; settings: cited from earlier work
[3] = n = 4 cells, four concentrations of each compound, IonWorks Barracuda, read-out: IC50 (μM) against CLC-2
[4] = Table 2, read-out: IC50 (CLC-2)

T1 sequence (P51788 whole entry): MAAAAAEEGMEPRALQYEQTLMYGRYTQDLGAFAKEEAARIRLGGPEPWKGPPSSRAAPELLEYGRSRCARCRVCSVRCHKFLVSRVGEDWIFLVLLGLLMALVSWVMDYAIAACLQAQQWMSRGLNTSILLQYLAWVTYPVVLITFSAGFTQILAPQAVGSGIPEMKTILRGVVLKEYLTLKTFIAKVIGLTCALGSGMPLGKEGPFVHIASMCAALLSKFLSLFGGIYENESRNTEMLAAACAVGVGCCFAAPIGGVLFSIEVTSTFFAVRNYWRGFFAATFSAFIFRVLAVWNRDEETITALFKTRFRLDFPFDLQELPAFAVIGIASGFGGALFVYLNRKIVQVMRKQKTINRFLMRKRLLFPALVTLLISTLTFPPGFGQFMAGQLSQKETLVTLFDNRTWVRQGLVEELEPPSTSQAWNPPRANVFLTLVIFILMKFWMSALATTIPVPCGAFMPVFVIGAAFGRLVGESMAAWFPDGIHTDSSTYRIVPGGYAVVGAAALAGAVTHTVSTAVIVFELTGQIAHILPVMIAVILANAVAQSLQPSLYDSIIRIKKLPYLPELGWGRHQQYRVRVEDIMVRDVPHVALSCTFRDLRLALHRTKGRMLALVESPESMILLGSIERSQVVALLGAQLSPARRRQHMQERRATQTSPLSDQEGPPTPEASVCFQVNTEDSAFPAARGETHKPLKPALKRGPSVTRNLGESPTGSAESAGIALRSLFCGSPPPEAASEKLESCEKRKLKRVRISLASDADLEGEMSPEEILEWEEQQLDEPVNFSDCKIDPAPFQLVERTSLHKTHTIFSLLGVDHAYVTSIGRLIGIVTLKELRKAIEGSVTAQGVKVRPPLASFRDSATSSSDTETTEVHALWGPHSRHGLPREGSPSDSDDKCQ
Chain of CLC-1 (P35523 whole entry): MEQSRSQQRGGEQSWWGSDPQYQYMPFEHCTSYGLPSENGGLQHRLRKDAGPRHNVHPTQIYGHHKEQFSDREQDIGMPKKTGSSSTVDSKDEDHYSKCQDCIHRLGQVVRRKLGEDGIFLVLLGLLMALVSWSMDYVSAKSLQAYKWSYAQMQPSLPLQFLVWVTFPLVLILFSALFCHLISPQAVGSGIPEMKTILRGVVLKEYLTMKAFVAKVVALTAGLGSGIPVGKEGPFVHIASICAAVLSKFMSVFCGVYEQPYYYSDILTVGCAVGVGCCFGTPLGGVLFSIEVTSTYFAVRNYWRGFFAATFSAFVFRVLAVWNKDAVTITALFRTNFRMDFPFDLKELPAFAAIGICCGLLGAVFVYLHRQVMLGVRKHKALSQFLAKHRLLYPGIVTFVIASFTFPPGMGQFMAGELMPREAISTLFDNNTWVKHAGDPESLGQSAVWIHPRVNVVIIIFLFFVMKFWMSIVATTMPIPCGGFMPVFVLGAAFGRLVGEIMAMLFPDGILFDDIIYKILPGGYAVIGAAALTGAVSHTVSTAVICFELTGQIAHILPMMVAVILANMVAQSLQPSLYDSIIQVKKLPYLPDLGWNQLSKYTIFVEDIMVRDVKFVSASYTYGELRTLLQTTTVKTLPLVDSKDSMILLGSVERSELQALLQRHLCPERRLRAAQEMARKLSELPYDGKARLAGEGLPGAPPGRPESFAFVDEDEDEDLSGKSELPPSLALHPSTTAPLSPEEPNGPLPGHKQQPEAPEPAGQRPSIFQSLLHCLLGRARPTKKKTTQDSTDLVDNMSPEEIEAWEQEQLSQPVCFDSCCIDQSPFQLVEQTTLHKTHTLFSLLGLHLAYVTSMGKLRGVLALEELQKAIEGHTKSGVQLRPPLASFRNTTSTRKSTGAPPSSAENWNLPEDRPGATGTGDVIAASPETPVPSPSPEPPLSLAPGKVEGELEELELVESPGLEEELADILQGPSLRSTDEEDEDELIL

SMILES	% inhibition at the concentration listed (in parenthesis) (CLC-2 [1])	IC50 (CLC-2 [1]; [3])	other results
O=C(O)c1ccccc1Nc1ccc(Cl)cc1Cl [AK2-200A]	(13%)	> 120 µM	
O=C(O)c1ccccc1Nc1ccc(Cl)c(Cl)c1 [AK2-200B]	(12%)	> 120 µM	
Cc1cccc(Nc2ccccc2C(=O)O)c1Cl [AK2-200C]	(43%)	> 120 µM	
O=C(O)c1ccccc1Nc1c(Cl)cccc1Cl [AK2-209A]		22.1 µM	
O=C(O)c1ccccc1Nc1cc(Cl)ccc1Cl [AK2-209B]	(23%)	> 120 µM	
Cc1ccc(Cl)c(Nc2ccccc2C(=O)O)c1 [AK2-214A]	(48%)	> 120 µM	
O=C(O)c1ccccc1Nc1c(Cl)cc(Cl)cc1Cl [AK2-214B]	(22%)	> 120 µM	
O=C(O)c1ccccc1Nc1c(F)cccc1F [AK2-214C]	(41%)	> 120 µM	
Cc1ccc(Cl)c(Nc2ccccc2OS(=O)(=O)O)c1Cl [AK2-262]	(28%)	> 120 µM	
O=C(O)c1ccccc1Nc1c(Cl)ccc(C(F)(F)F)c1Cl [AK2-270A]		35.7 µM	
O=C(O)c1cccc2c1[nH]c1c(Cl)ccc(C(F)(F)F)c12 [AK2-270B]	(−48%)	> 120 µM	
Cc1ccc(C(=O)O)c(Nc2c(Cl)ccc(C)c2Cl)c1 [AK2-288A]		24.7 µM	
Cc1ccc(Cl)c(Nc2cccc(C)c2C(=O)O)c1Cl [AK2-288C]	(37%)	> 102 µM	
COc1ccc(Cl)c(Nc2ccccc2C(=O)O)c1Cl [AK2-289A]		9.86 µM	
C=C(C)c1ccc(Cl)c(Nc2ccccc2C(=O)O)c1Cl [AK2-289B]		7.16 µM	
Cc1cccc(C)c1Nc1ccccc1C(=O)O [AK2-289C]		23.4 µM	
CCc1ccc(Cl)c(Nc2ccccc2C(=O)O)c1Cl [AK2-292]		7.69 µM	
Cc1ccc(Cl)c(Nc2ccccc2-c2nnn[nH]2)c1Cl [AK3-89]		33.4 µM	
Cc1ccc(Cl)c(Nc2cccc(C(=O)O)c2)c1Cl [AK3-97A]	(36%)	> 141 µM	

SMILES	% inhibition at the concentration listed (in parenthesis) (CLC-2 [1])	IC50 (CLC-2 [1]; [3])	other results
Cc1ccc(Cl)c(Nc2ccc(C(=O)O)cc2)c1Cl [AK3-97B]	(8%)	> 144 µM	
CCc1cccc(CC)c1Nc1ccccc1C(=O)O [AK3-97C]		86.3 µM	
Cc1ccc(Cl)c(Nc2cc(F)ccc2C(=O)O)c1Cl [AK3-98A]		13.7 µM	
Cc1ccc(Cl)c2[nH]c3c(C(=O)O)ccc(F)c3c12 [AK3-98B]	(−16%)	> 69 µM	
COCOc1ccc(Cl)c(Nc2ccccc2C(=O)O)c1Cl [AK3-99A]		2.04 µM	
O=C(O)c1ccccc1Nc1c(Cl)ccc(-c2ccccc2)c1Cl [AK3-100A]		12.6 µM	
O=C(O)c1ccccc1Nc1c(Cl)ccc(OCC2CCCCC2)c1Cl [AK3-101A]		2.98 µM	
COc1ccccc1-c1ccc(Cl)c(Nc2ccccc2C(=O)O)c1Cl [AK3-101B]		5.29 µM	
O=C(O)c1ccccc1Nc1c(Cl)ccc(O)c1Cl [AK3-102A]		3.6 µM	
O=C(O)c1ccccc1Nc1c(Cl)ccc(C2=CCCCC2)c1Cl [AK3-103B]		48.8 µM	
Cc1ccc(Cl)c(Nc2cccnc2C(=O)O)c1Cl [AK3-107A]	(12%)	> 222 µM	
Cc1ccc(Cl)c(Nc2ccncc2C(=O)O)c1Cl [AK3-107B]	(16%)	> 42 µM	
Cc1ccc(Cl)c(Nc2cnccc2C(=O)O)c1Cl [AK3-108A]		115 µM	
Cc1ccc(Cl)c(Nc2ncccc2C(=O)O)c1Cl [AK3-108B]		1.79 µM	IC50 (CLC-1): > 30 µM; percent inhibition of CLC-1 at highest concentration tested (in parenthesis) (CLC-1; at the concentration listed in the same cell): 5%; IC50 (CLC-2 [1]; [4]): 4 ± 0.7 µM
Cc1ccc(Cl)c(Nc2ccccc2P(=O)(O)O)c1Cl [AK3-118]	(6%)	> 195 µM	
CCOP(=O)(O)c1ccccc1Nc1c(Cl)ccc(C)c1Cl [AK3-119]	(41%)	> 354 µM	
Cc1ccc(Cl)c(Nc2ccccc2C(N)=O)c1Cl [AK3-124]		42.4 µM	
NC(=O)c1ccc(COc2ccc(Cl)c(Nc3ccccc3C(=O)O)c2Cl)cc1 [AK3-219]	(15%)	> 120 µM	
O=C(O)c1ccc(COc2ccc(Cl)c(Nc3ccccc3C(=O)O)c2Cl)cc1 [AK3-224]	(4%)	> 120 µM	

SMILES	% inhibition at the concentration listed (in parenthesis) (CLC-2 [1])	IC50 (CLC-2 [1]; [3])	other results
NC(=O)c1ccccc1COc1ccc(Cl)c(Nc2ccccc2C(=O)O)c1Cl [AK3-225]	(0%)	> 120 µM	
NC(=O)c1cccc(COc2ccc(Cl)c(Nc3ccccc3C(=O)O)c2Cl)c1 [AK3-226]	(5%)	> 120 µM	
CC(=O)Nc1cccc(COc2ccc(Cl)c(Nc3ccccc3C(=O)O)c2Cl)c1 [AK3-227]		81.9 µM	
O=C(O)c1cccc(COc2ccc(Cl)c(Nc3ccccc3C(=O)O)c2Cl)c1 [AK3-239]		17.9 µM	
O=C(O)c1ccccc1COc1ccc(Cl)c(Nc2ccccc2C(=O)O)c1Cl [AK3-250]		67.8 µM	
O=C(O)c1cccc2c1[nH]c1c(Cl)ccc(OCc3ccccc3)c12 [AK3-251]	(5%)	> 120 µM	
O=C(O)c1ccccc1Nc1c(Cl)ccc(OCc2ccccc2F)c1Cl [AK3-261]		1.16 µM	
O=C(CCCC[C@@H]1SC[C@@H]2NC(=O)N[C@@H]21)NCCOCCOCCOCCOCCC(=O)NCCOc1ccc(Cl)c(Nc2ccccc2C(=O)O)c1Cl [AK3-294]		77.1 µM	
NCCOc1ccc(Cl)c(Nc2ccccc2C(=O)O)c1Cl [AK3-296]	(7%)	> 120 µM	
O=C(O)c1c2ccccc2cc2ccccc12 [Compound 9-AC]			potency of previously reported small-molecule inhibitors of CLC-2 (CLC-2 [2]): mM range
O=S(=O)(O)c1cc(N=C=S)ccc1C=Cc1ccc(N=C=S)cc1S(=O)(=O)O [DIDS]			potency of previously reported small-molecule inhibitors of CLC-2 (CLC-2 [2]): mM range
O=C(O)c1ccccc1Nc1ccccc1 [DPC, reference compound]	(27%)	> 312 µM	potency of previously reported small-molecule inhibitors of CLC-2 (CLC-2 [2]): mM range
Cc1cccc(COc2ccc(Cl)c(Nc3ccccc3C(=O)O)c2Cl)c1 [EEGI-054]		7.93 µM	
Cc1ccccc1COc1ccc(Cl)c(Nc2ccccc2C(=O)O)c1Cl [EEGI-055]		1.2 µM	
Cc1ccc(COc2ccc(Cl)c(Nc3ccccc3C(=O)O)c2Cl)cc1 [EEGI-056]		15.8 µM	
O=C(O)c1ccccc1Nc1c(Cl)ccc(OCCc2ccccc2)c1Cl [EEGI-060]		7.32 µM	
Cc1ccc(Cl)c(Nc2ccccc2C(=O)O)c1Cl [MCFA, meclofenamate, reference compound]		14 µM and 13.9 µM	IC50 (CLC-1): 60 ± 9 µM; IC50 (CLC-2 [1]; [4]): 8.7 ± 0.3 µM
O=C(O)c1cccnc1Nc1cccc(C(F)(F)F)c1 [NFA, reference compound]	(0%)	> 120 µM	
O=C(O)c1cc([N+](=O)[O-])ccc1NCCCc1ccccc1 [NPPB]			potency of previously reported small-molecule inhibitors of CLC-2 (CLC-2 [2]): mM range
